Assay results: patent publication US20070197452A1, “Treatment of amyloid-related diseases” (priority 2006, published 2007)
Entries after “also recorded” stand apart in the source; their conditions may differ.

How the values were obtained:
Assay type in all cases: in vivo, mouse
Aβ40 = target: T1, Aβ40 (Homo sapiens, UniProt P05067); assay: Cerebral Aβ40 content of hemi-brain homogenates (commercial kit); details: for brain Aβ40 levels: TgCRND8 mice with pre-existing disease, 28 days from 5 months of age
T1 construct: analyzed for Aβ40 and Aβ42 using commercially available kits; from tissue; host or cells: hemi-brain homogenates of TgCRND8 transgenic mice
T1 sequence (P05067 672-711 limits assumed): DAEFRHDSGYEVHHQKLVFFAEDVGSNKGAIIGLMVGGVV
Procedure: (§1) Plasma and Cerebral Aβ Content. Hemi-brain samples were homogenized in a buffered sucrose solution, followed by either 0.4% diethylamine/100 mM NaCl for soluble Aβ levels or cold formic acid for the isolation of total Aβ. After neutralization, the samples were diluted and analyzed for Aβ40 and Aβ42 using commercially available kits (BIOSOURCE International). Each hemisphere was analyzed in triplicate and the mean values±SEM reported. Western blot analyses were performed on all fractions using urea gels for Aβ species analyses. Aβ was detected using 6E10 (BIOSOURCE International) and Enhanced Chemiluminenscence (Amersham).
(§2) Plasma and cerebral Aβ content. Hemi-brain samples were homogenized in a buffered sucrose solution, followed by either a mixture of 0.4% diethylamine and 100 mM NaCl for soluble Aβ levels or cold formic acid for the isolation of total Aβ. After neutralization, samples were diluted and analyzed for Aβ40 and Aβ42 using commercially available kits (Biosource International). Each hemisphere was analyzed in triplicate and the mean±s.e.m. was reported. Western blot analyses were carried out on all fractions using urea gels for Aβ species analyses. Aβ was detected using 6E10 (Biosource International).

Aβ42 = target: T2, Aβ42 (Homo sapiens, UniProt P05067); assay: Cerebral Aβ42 content of hemi-brain homogenates (commercial kit); details: for brain Aβ42 levels: TgCRND8 mice with pre-existing disease, 28 days from 5 months of age
T2 construct: analyzed for Aβ40 and Aβ42 using commercially available kits; from tissue; host or cells: hemi-brain homogenates and plasma of TgCRND8 transgenic mice
T2 sequence (P05067 672-713 limits assumed): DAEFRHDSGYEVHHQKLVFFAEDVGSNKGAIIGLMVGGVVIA
Procedure: as §1, §2

TgCRND8 mice [1] = assay: Vascular amyloid (Aβ) burden; details: prophylactic treatment, vs untreated
Procedure: Cerebral amyloid burden. Brains were removed and one hemisphere was fixed in 4% paraformaldehyde and embedded in paraffin wax in the mid sagittal plane. To generate sets of systematic uniform random sections, 5 μm serial sections were collected across the entire hemisphere. Sets of sections at 50 μm intervals were used for analyses (10-14 sections/set). Plaques were identified after antigen retrieval with formic acid, and incubation with primary anti-Aβ antibody (Dako M-0872), followed by secondary antibody (Dako StreptABCcomplex/horseradish kit). End products were visualized with DAB and were counter-stained with luxol fast blue. Amyloid plaque burden was assessed with Leco IA-3001 image analysis software interfaced with Leica microscope and Hitachi KP-M1U CCD video camera. Openlab imaging software (Improvision, Lexington, Mass.) was then used to convert micrographs to binary images for plaque number and plaque area determinations. Vascular amyloid burden was defined as amyloid originating from or surrounding blood vessels and was analysed similarly.
Cerebral Aβ burden. Brains were removed and fixed one hemisphere from each in 4% paraformaldehyde and embedded in paraffin wax in the midsagittal plane. Sets of sections at […] intervals for analyses (10-14 sections per set) were used. Plaques with primary Aβ-specific antibody (Dako M-0872) were identified and visualized with DAB. AP plaque burden was assessed with Openlab imaging software (Improvision) and used to convert micrographs to binary images for determinations of plaque number and plaque area. Vascular Aβ burden was defined as Aβ plaques originating from or surrounding blood vessels and was analyzed similarly.
Cerebral Aβ burden. Brains were removed and one hemisphere was fixed in 4% paraformaldehyde and embedded in paraffin wax in the mid sagittal plane. […] Aβ plaque burden was assessed with Leco IA-3001 image analysis software interfaced with Leica microscope and Hitachi KP-M1U CCD video camera. […] Vascular Aβ burden was defined as Aβ plaques originating from or surrounding blood vessels and was analyzed similarly.

TgCRND8 mice [2] = assay: Gliosis quantitation (GFAP astrocytes, CD68 microglia); details: prophylactic treatment; for astrogliosis (percent brain area covered): 4 and 6 months of age; for microgliosis / microglial activation (percent brain area covered): 6 months of age
Procedure: Gliosis Quantitation. Five randomly selected, evenly spaced, sagittal sections were collected from paraformaldehyde-fixed and frozen hemispheres of treated and control mice. Sections were immunolabelled for astrocytes with anti-rat GFAβ IgG2a (Dako; diluted 1:50) and for microglia with anti-rat CD68 IgG2b (Dako; 1:50). Digital images were captured using a Coolsnap digital camera (Photometrics, Tuscon, Ariz.) mounted to a Zeiss, Axioscope 2 Plus microscope. Images were analysed using Openlab 3.08 imaging software (Improvision, Lexington Mass.). Quantification of gliosis. Five randomly selected, evenly spaced sagittal sections from paraformaldehyde-fixed and frozen hemispheres of treated and control mice were collected. Sections were immunolabeled for astrocytes with an antibody against rat GFAβ IgG2a (Dako; diluted 1:50) and for microglia with an antibody to rat CD68 IgG2b (Dako; 1:50). Digital images were captured using a Coolsnap digital camera (Photometrics) mounted to a Zeiss, Axioscope 2 Plus microscope. Images were analyzed using Openlab 3.08 imaging software (Improvision).

TgCRND8 mice [3] = assay: Survival census (Kaplan-Meier); details: prophylactic treatment, vs untreated, n=35 per group
Procedure: (§3) Survival Census: The probability of survival was assessed by the Kaplan-Meier technique, computing the probability of survival at every occurrence of death, thus making it suitable for small sample sizes. For the analyses of survival, 35 mice were used for each treatment group. The Tarone-Ware test was used to assess effects of treatments.
as §3, with “census.” for “Census:”, “using” for “by”

[4] = TgCRND8 mice, prophylactic treatment, 4 months of age

With `OC1C(O)C(O)C(O)C(O)C1O` (stereo not drawn) [scyllo-cyclohexanehexol, 1,3,5/2,4,6-(scyllo-) cyclohexanehexol] the “brain Aβ40 levels” value (Aβ40) was “reduced levels”, the “brain Aβ42 levels” value (Aβ42) was “reduced levels” and the “brain area covered by cerebrovascular Aβ” value (TgCRND8 mice [1]) was “reduced brain area covered by cerebrovascular Aβ”. The “mean size of cerebrovascular deposits” value (TgCRND8 mice [1]) was “reduced mean size of cerebrovascular deposits”, the “astrogliosis (percent brain area covered)” value (TgCRND8 mice [2]) was “decreased astrogliosis much more efficiently” and the “astrogliosis (percent brain area covered)” value (TgCRND8 mice [2]; listed as AZD-103) was “decreased the astrogliotic response to a greater extent; also recorded: significantly decreased”. The “astrogliosis (percent brain area covered)” value (TgCRND8 mice [2]; listed as Scyllo-cyclohexanehexol) was “decreased the astrogliotic response to a greater extent than epi-cyclohexanehexol; also recorded: significantly decreased”, the “microgliosis / microglial activation (percent brain area covered)” value (TgCRND8 mice [2]) was “attenuated microglial activation; also recorded: decreased the percent brain area covered with microgliosis” and the “microgliosis / microglial activation (percent brain area covered)” value (TgCRND8 mice [2]; listed as AZD-103) was “decreased the percent brain area covered with microgliosis”. For the same molecule, the “survival (Kaplan-Meier cumulative survival)” value (“survival” for short) (TgCRND8 mice [3]) was “accelerated mortality was reversed; also recorded: increased survival” and the “survival” value (TgCRND8 mice [3]; listed as AZD-103) was “increased survival”.
`OC1C(O)C(O)C(O)C(O)C1O` (stereo not drawn) [epi-cyclohexanehexol, 1,2,3,4,5/6-(epi-) cyclohexanehexol, reference compound] was tested, and the “brain Aβ40 levels” value (Aβ40) was “no significant impact; also recorded: no significant effect”, the “reduction of brain Aβ40 (range given for both Aβ40 and Aβ42)” value (Aβ40; [4]) was 22-62 % reduction and the “brain Aβ42 levels” value (Aβ42) was “no significant impact; also recorded: no significant effect”. For the same molecule, the “reduction of brain Aβ42 (range given for both Aβ40 and Aβ42)” value (Aβ42; [4]) was 22-62 % reduction, the “total vascular Aβ load / vascular Aβ deposits” value (TgCRND8 mice [1]) was “no change” and the “astrogliosis (percent brain area covered)” value (TgCRND8 mice [2]) was “decreased the percent brain area covered in astrogliosis”. The “astrogliosis (percent brain area covered)” value (TgCRND8 mice [2]; listed as AZD-102) was “decreased the percent brain area covered in astrogliosis; also recorded: decrease in astrogliosis”, the “astrogliosis (percent brain area covered)” value (TgCRND8 mice [2]; listed as Epi-cyclohexanehexol) was “decreased the astrogliotic response; also recorded: decrease in astrogliosis” and the “microgliosis / microglial activation (percent brain area covered)” value (TgCRND8 mice [2]) was “decreased the percent brain area covered with microgliosis”. The “microgliosis / microglial activation (percent brain area covered)” value (TgCRND8 mice [2]; listed as AZD-102) was “decreased the percent brain area covered with microgliosis”, the “microgliosis / microglial activation (percent brain area covered)” value (TgCRND8 mice [2]; listed as Epi-cyclohexanehexol) was “no effect on microglial activation” and the “survival” value (TgCRND8 mice [3]; listed as AZD-102) was “did not significantly improve survival”. The “survival” value (TgCRND8 mice [3]; listed as Epi-cyclohexanehexol) was “did not significantly improve survival”.
